The values below come from a melting point compilation (Tetko et al.; mined from patent text by program, amines drawn as free bases though some values may be those of a salt).

One may read the melting point as the temperature of the solid-liquid transition.

Consider `COc1cc(OC)nc(C(C(N)=O)c2cccc(Cl)c2)n1` (configuration not stated), for which the melting point is 118 to 119 °C.

The compound `CC(NC(=O)c1cc(Cl)ccc1NC(=O)C1CC(O)=NN1c1ncccc1Cl)C1CC1` (configuration not stated) gave a melting point of 165 to 167 °C.

On to `O=c1[nH]c(=O)n(C2CC(OCc3ccccc3Cl)C(CO)O2)cc1F` (configuration not stated), for which the melting point is 78 to 80 °C.

Take `COc1c(/C=C/c2ccc(NS(C)(=O)=O)cc2)cc(N2CCC(=O)NC2=O)cc1C(C)(C)C`: the melting point lay within 260 to 261 °C.

The compound `[N-]=[N+]=NS(=O)(=O)c1cc(C(=O)O)c(O)c(S(=O)(=O)N=[N+]=[N-])c1` registered a melting point of 184 to 186 °C.

Turning to `c1cnc(-c2cccnc2)nc1`, the melting point is 51 to 52 °C.

`CCCCCN1C(=O)C(CCc2nnn[nH]2)(NC(=O)c2ccc(Cl)c(Cl)c2)c2ccccc21` (configuration not stated) gave a melting point of 142 °C.

`CC(C)(CN)c1ccc2nc(-c3ccc(O)cc3)[nH]c2c1` came in with a melting point of 178 to 182 °C.

For the compound `O=C(Nc1ccc(F)cc1F)c1cccc(Oc2cccc(C(F)(F)F)c2)n1`, the melting point is 110 to 112 °C.

For `COc1ccc(N2CCN(c3c(C)c(C)c4c(c3C)CC(C)(Cn3cccn3)O4)CC2)cc1` (configuration not stated), the melting point fell in the range of 117 to 120 °C.

Take `NS(=O)(=O)c1ccc(-c2cnn(CC(F)(F)F)c(=O)c2Oc2ccc(F)cc2)cc1`: the melting point was in the range of 150 to 152 °C.

The compound `CCOC(=O)C(O)C(Oc1ccccc1[N+](=O)[O-])c1ccccc1` (configuration not stated) returned a melting point of 129 to 131 °C.

`COc1cc([N+](=O)[O-])ccc1S(=O)(=O)n1c(=O)n(C2CCCCCC2)c2cc(Cl)ccc21` yielded a melting point of 193 °C.

`OCCCCOc1ccc2ccccc2c1`: the melting point lay within 66.5 to 67.5 °C.

`CCOC(=O)c1c(Cc2nc[nH]n2)nc2sc3cnccc3c2c1-c1ccc(OC)c(OC)c1` came in with a melting point of 172 to 174 °C.

Consider `CCOC(=O)c1cccc(C2(C(N)=O)C(=O)N(CC(=O)N(c3ccccc3)C(C)C)c3ccccc3N(c3ccccc3)C2=O)c1` (configuration not stated), for which the melting point was 187 to 188 °C.

`COc1ccc(-c2nc(O)c(-c3ccccc3)s2)cc1` came in with a melting point of 218 to 221 °C.

On to `Brc1cccc(Sc2ccccc2)n1`, for which the melting point was 47 °C.

For the compound `CN(C)C1(c2ccccc2)CCC2(OCCc3c2[nH]c2ccccc32)C(CC#N)C1` (configuration not stated), the melting point fell in the range of 260 to 267 °C.

In turn, `Cc1ccc(CC2CCN(C(=O)C(=O)Nc3ccc4[nH]c(=O)[nH]c4c3)CC2)cc1` yielded a melting point above 280 °C.

`CCCOc1ccc(Br)cc1CN(CC)c1ccc(C(=O)O)nn1` returned a melting point of 135 to 137 °C.

As to `CCOC(=O)c1conc1-c1ccc(Cl)cc1`, the melting point fell in the range of 43 to 45 °C.

Take `COCOc1ccc(Nc2ncccc2NS(=O)(=O)c2ccc(OC)cc2)cc1`: the melting point was in the range of 118 to 119 °C.

Consider `CC(C(=O)O)c1ccc2noc(-c3ccccc3)c2c1` (configuration not stated), for which the melting point lay in the range of 145 to 149 °C.

In the case of `O=C1COc2ccc(C3=Cc4ccccc4SC3c3ccccc3)cc2N1` (configuration not stated), the melting point fell in the range of 226 to 227 °C.

The compound `COC(=O)c1cc(=O)c2cc(OC)cc(N)c2o1` showed a melting point of 145 to 147 °C.

`N#CC=C1CCN(c2ccc(N3C[C@@H](CN=[N+]=[N-])OC3=O)cc2F)CC1`: the melting point fell in the range of 112 to 114 °C.

The compound `O=C1CCC(N2C(=O)c3cccc(CNC(=O)OCc4ccccc4)c3C2=O)C(=O)N1` (configuration not stated) yielded a melting point of 166 to 168 °C.

With `CC(C)(C)c1cc(CCc2ccccc2NC(=O)NC(C)(C)c2ccc(Cl)c(Cl)c2)cc(C(C)(C)C)c1O`, the melting point lay within 203 to 205 °C.

In the case of `FC(F)(F)c1ccc(-n2ccc3cnccc32)c(Cl)c1`, the melting point lay within 160 to 161 °C.

Compound `Cc1ccc(-c2nc(CCl)co2)s1` came in with a melting point of 84 to 85 °C.

On to `Cc1cc(-c2ccc(C(F)(F)F)cc2)cn2c(-c3nc(-c4ccc(S(N)(=O)=O)s4)no3)cnc12`, for which the melting point stood at 285 °C.

With `CNC1CCN(c2nc3c(cc2F)c(=O)c(C(=O)O)cn3CCF)C1` (configuration not stated), the melting point was 243 to 245 °C.

The compound `O=S(=O)(O)c1cccc(NCc2cccc(C(F)(F)F)c2)c1` gave a melting point above 275 °C.

For `CCCc1cc(N2CCC(NCC(O)c3ccc4ccccc4n3)CC2)nc2sc(C(N)=O)c(N)c12` (configuration not stated), the melting point was 159 to 161 °C.

With `CCOC(=O)N1CCc2nnc(NN=C(C)C)cc2C1`, the melting point fell in the range of 171 to 174 °C.

For `CS(=O)(=O)Nc1ccc(OCCCc2ccc(OCCCCOc3ccccc3)cc2)c(C(=O)O)c1`, the melting point fell in the range of 86 to 88 °C.

Take `O=C1CCC(N2C(=O)c3cccc(OCc4ccc(CN5CCN(c6ccc(F)cc6)CC5)cc4)c3C2=O)C(=O)N1` (configuration not stated): the melting point is 135 to 137 °C.

`CNC(=O)c1cn(CCO)nc1[N+](=O)[O-]` displayed a melting point of 138 to 140 °C.

Take `COC(CN1CCN(c2cccc(-n3cnc4cc(C(C)=O)ccc43)c2)CC1)=NOC(C)C`: the melting point was in the range of 120 to 121 °C.

`CC(C)(C)c1cc(-c2nn(CCCC(=O)O)c3ncccc23)cc(C(C)(C)C)c1O` returned a melting point of 192 to 194 °C.

`C[Si](C)(C)c1ccc2c(c1)C([Si](C)(C)C)([Si](C)(C)C)c1cc([Si](C)(C)C)ccc1-2` came in with a melting point of 141 to 142 °C.

The compound `CC(=O)NC[C@H]1CN(c2ccc(C3CCN(C(=O)O)CC3)c(F)c2)C(=O)O1` yielded a melting point of 144 to 146 °C.

`NCC(O)COc1cccc2ccccc12` (configuration not stated) came in with a melting point of 106 °C.

Consider `COC(=O)N1C2CC3CC(C2)CC1C3`, for which the melting point turned out to be 88 °C.

`Cc1ccc(-c2c3ccccc3nn2Cc2ccccc2)cc1` showed a melting point of 111 °C.

The compound `C#Cc1cccc(Nc2ncnc3[nH]cc(-c4cccc([N+](=O)[O-])c4)c23)c1` registered a melting point of 189 to 190 °C.

`Nc1nc(-c2cc(Cl)ccc2Cl)nc(N2CC(O)C2)n1`: the melting point was in the range of 256 to 257 °C.

Compound `CON=C(C#N)c1ccccc1S(N)(=O)=O` came in with a melting point of 82 to 90 °C.

Regarding `CC(=O)OC1CCN(Cc2nc(-c3cc(C(C)(C)C)c(O)c(C(C)(C)C)c3)cs2)CC1`, the melting point was 160 to 161 °C.

`Cc1c(Cc2ccccc2)c(=O)oc2cc(O)cc(O)c12` gave a melting point of 258 to 260 °C.

In turn, `Cc1cncc2cccc(S(=O)(=O)Cl)c12` yielded a melting point of 113 to 118 °C.

In turn, `O=C1c2ccccc2C2(c3ccc(Cl)cc3)NCCN12` (configuration not stated) gave a melting point of 166 to 168 °C.

Turning to `O=C(Nc1cccc2c(=O)cc(C(=O)O)oc12)c1ccc2oc(COCc3ccccc3)cc2c1`, the melting point was 215 to 218 °C.

`COc1ccccc1-c1ccccc1C#N` registered a melting point of 54 to 55 °C.

On to `COc1ccc2c(c1)CCC(CN1CCC(O)(c3ccccc3)CC1)C2=O` (configuration not stated), for which the melting point was 163 to 165 °C.

In turn, `CC(=O)N1CC=C(c2cc(C)c(O)cc2C)CC1` showed a melting point of 220 °C.

Compound `Cc1nc(-n2ccc(C3CC3)cc2=O)sc1C(=O)NCc1ccccc1` returned a melting point of 149 to 151 °C.

For `CCCC(=O)Nc1n[nH]c2cc(-c3ccc4c(c3)OCO4)ccc12`, the melting point was determined as 240 °C.

`CCN(CC)CCNc1cc(-c2c(-c3cccc(C)c3)nc3cccnn23)ccn1` yielded a melting point of 97 to 98 °C.

For the compound `CCNC(=O)c1ccc(N2CCN(Cc3cc4c(c(OC)c3)OCC(=O)N4)CC2)c(C)c1`, the melting point was in the range of 208 to 225 °C.

Compound `CN1C(=O)C(CC(=O)Nc2ccc(Cl)cc2)N=C(c2ccccc2)c2ccccc21` (configuration not stated) registered a melting point of 238 to 240 °C.

As for `CCc1cc2c3ccccc3c(C=O)cc2c2ccccc12`, the melting point lay in the range of 138 to 139 °C.

Compound `CC1=CC=C[C@@H](O)[C@H]1O` came in with a melting point of 56 to 57 °C.

With `Cc1ccc(-c2nc3c(O)cccc3s2)cc1`, the melting point is 164 to 166 °C.

`CC(C)(C)c1cc(C(=O)ON(Cc2ccccc2)Cc2ccccc2)cc(C(C)(C)C)c1O` returned a melting point of 90 to 92 °C.

The compound `O=C(c1cccnc1Cl)N1CCN=C1Cc1ccccc1Cl` showed a melting point of 128 to 130 °C.

The compound `CCOCCOc1ccc(CCNC(=O)OC(C)(C)C)cc1` had a melting point of 56 to 57 °C.

Consider `COc1cc(C(C)C)c(NC(=O)CN2CCN(CCSc3nc4ccccc4o3)CC2)c(C(C)C)c1`, for which the melting point fell in the range of 115 to 117 °C.

Regarding `N=C(N)NCCc1ccc(OCCC2Oc3ccccc3N(Cc3cccc(OCc4ccccc4)c3)C2=O)cc1` (configuration not stated), the melting point lay within 100 to 105 °C.

`C=Cc1ccc(CN2CCN(Cc3ccc(C=C)cc3)CCN(Cc3ccc(C=C)cc3)CC2)cc1`: the melting point was 71 to 73 °C.

In turn, `O=C1CC2C(OCc3ccc(Br)cc3)CC(O1)C2N1CCCCC1` (single isomer, unassigned; (-)) had a melting point of 85 to 88 °C.

As for `Oc1ccc(N2CCN(c3nncc4ccccc34)CC2)cc1`, the melting point lay in the range of 244 to 245 °C.

Take `Cc1cc(Cl)c(N)c([N+](=O)[O-])c1`: the melting point was in the range of 68.5 to 69.5 °C.

`COC(=O)c1ccc(Cc2ccc(O)cc2)cn1`: the melting point lay in the range of 184 to 186 °C.

`COC(=O)c1cccc(-c2nc(-c3ccc(C(F)(F)F)cc3)cs2)c1` returned a melting point of 142 to 143 °C.

Turning to `COc1ccc(C(=O)Nc2c(Cl)cc(NC(C)=O)cc2Cl)cc1OC1CCCC1`, the melting point was 250 to 252 °C.

`CCc1c2c(nn1-c1ccccc1)c(Cl)nc1ccccc12` showed a melting point of 207 to 209 °C.

In turn, `Fc1cccc(-c2nc3cc(Br)ccn3n2)c1` displayed a melting point of 186 to 188 °C.

For the compound `CCCc1nc2c(N)nc3ccccc3c2n1Cc1cc(-c2ccc(F)cc2)no1`, the melting point was in the range of 226 to 227 °C.

For `CCCCCS(=O)(=O)NC(=O)CCc1ccc(OCCOC)cc1OC1CCCCC1`, the melting point was 64.1 to 65.4 °C.

For `CNC(=N[N+](=O)[O-])N(Cc1cnc(Cl)s1)C(C)=O`, the melting point is 105 to 106 °C.

On to `COc1cc(C)nc(NC(=O)NS(=O)(=O)c2cccnc2Cl)n1`, for which the melting point fell in the range of 165 to 168 °C.

`CCC(=O)NC1Cc2ccccc2C(c2ccccc2)C1` (configuration not stated) had a melting point of 144 to 146 °C.

The compound `COC(=O)[C@H](CSC)Nc1ncccc1[N+](=O)[O-]` gave a melting point of 95 to 97 °C.

In the case of `O=C(Nc1nccs1)c1c(C(F)(F)F)nc2c(C(F)(F)F)cccc2c1O`, the melting point is 258 °C.

Compound `CCc1noc(-c2cn(-c3ccccc3OCCc3ccccc3)cn2)n1` showed a melting point of 61 °C.
